Assay: gradient 5% acetonitrile 3 min, to 50% in 2 min, to 85% in 15 min, held 3 min, 100 µL/min
Settings: column: Zorbax Extend-C18 2.1 x 50 mm; eluents: water / acetonitrile, 0.1% formic acid
Method in brief: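 The system's dead and dwell volumes were 40 μL and 900 μL, with a Zorbax Extend-C18 column (2.1 × 50 mm, 1.8 μm) run at 100 μL/min in water and acetonitrile containing 0.1% formic acid each. Pure standards were analyzed in mixtures of ~100 molecules by HPLC–quadrupole time-of-flight mass spectrometry in positive and negative ionization mode. Retention time was assigned from computationally picked, manually inspected adduct peaks.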

| RP-LC retention time [s] | Compound |
| --- | --- |
| 840 | CC(CNC(=O)CCS(=O)(=O)c1ccc2c(c1)CCN2C(=O)C1CC1)c1ccccc1 (centres undefined) |
| 579 | COc1ccc(-c2nc(NCCCN3CCCCC3C)c3ccccc3n2)cc1 (centres undefined) |
| 1100 | CC1=CC(C)(C(Cl)(Cl)Cl)C(C)=C/C1=N/O (centres undefined) |
| 911 | CCOC(=O)CNC(=O)N1CCCCCC1c1ccccc1Cl (centres undefined) |
| 837 | CCOC(=O)c1cccc(Nc2c(-c3ccc(N(C)C)cc3)nc3cnccn23)c1 |
| 638 | Cc1ccc(-c2nc3nc(C)cc(N(C)CCO)n3n2)cc1 |
| 749 | COc1cccc(C(=O)N2CCC3(CC2)NC(=O)c2cccc(Cl)c2N3)c1 |
| 862 | CC(C)NC(=O)c1ccc(OCC2CCN(C(=O)c3c(F)cccc3F)CC2)cc1 |
| 871 | O=C(CN1C(=O)CC(c2ccccc2)S(=O)(=O)c2ccccc21)Nc1ccccc1F (centres undefined) |
| 593 | O=C(CSc1ccc(N2CCCC(C(=O)NC3CC3)C2)nn1)NCc1cccs1 (centres undefined) |
| 1030 | Cc1ccc2c(c1)N(S(C)(=O)=O)CCC(C(=O)Nc1ccc(Br)cc1F)O2 (centres undefined) |
| 1030 | CCCn1c(=O)c(N2CCC(NC(=O)Nc3cccc(C)c3)CC2)nc2ccccc21 |
| 610 | CNC(=O)c1cccc(Nc2c(-c3ccc(N(C)C)cc3)nc3cnccn23)c1 |
| 1120 | N#Cc1ccc(NC(=O)C2CCCN(S(=O)(=O)c3cc(-c4noc(C5CCC5)n4)cs3)C2)cc1 (centres undefined) |
| 860 | Cc1nc(C)c(C(=O)N2CCC(Oc3ccc(-c4noc(C5CC5)n4)cc3)C2)s1 (centres undefined) |
| 760 | COCCc1noc(-c2cnc3nc(C)ccc3c2Nc2ccc(Cl)cc2)n1 |
| 720 | CC(C)OCCCNC(=O)C1CCCN(S(=O)(=O)c2ccc3c(ccn3C)c2)C1 (centres undefined) |
| 1350 | CCOC(=O)c1c(C)oc2nc(C)nc(Nc3cc(C)ccc3OC)c12 |
| 1020 | CC(C)S(=O)(=O)N1CCC(F)(c2nc(-c3ccccc3)no2)CC1 |
| 690 | Cc1ccc2nc(CN3CCN(C(=O)NCc4ccc(F)cc4)CC3)oc2c1 |
| 884 | Cc1csc(-c2ccc(N3CCN(C(=O)c4ccccc4Br)CC3)nc2)n1 |
| 1020 | CCn1cc(Br)c(C(=O)Nc2ccc(F)c(Cl)c2)n1 |
| 1080 | CC1CCc2c(C(=O)NCCc3ccccc3)csc2C1 (centres undefined) |
| 818 | COc1ccc(N2CC(c3noc(-c4ccccc4F)n3)CC2=O)cc1OC (centres undefined) |

| RP-LC retention time [s] | Compound |
| --- | --- |
| 731 | O=C(c1ccc(Cl)s1)N1CC(F)(F)C[C@H]1COc1cccnc1 |
| 902 | COc1ccccc1C1CC(c2ccccc2NS(C)(=O)=O)=NN1C(=O)c1ccco1 (centres undefined) |
| 942 | COc1ccc(NC(=O)c2cc(C)n3nccc3n2)cc1Cl |
| 785 | COc1ccc(-c2nnc(-c3ccc(C)c(S(=O)(=O)N4CCC(C(=O)O)CC4)c3)o2)cc1OC |
| 886 | COc1cccc(-c2noc(C3CCCN3C(=O)Nc3ccc4c(c3)OCCO4)n2)c1 (centres undefined) |
| 926 | O=C(Nc1ccc(F)cc1)N1CCc2nc(-c3ccc(F)cc3)ncc2C1 |
| 796 | O=c1ccc(-c2cccs2)nn1CCNS(=O)(=O)c1ccc(F)c(Cl)c1 |
| 980 | CCOc1ccc(-c2noc(Cn3cnc4c(cnn4-c4ccccc4)c3=O)n2)cc1OC |
| 822 | CCc1nc(-c2cn(Cc3ccc(F)cc3)nn2)no1 |
| 808 | Cc1cccc(Nc2nc(C(=O)NCCc3ccco3)nc3ccccc23)c1 |
| 1060 | COc1ccc(-c2nnc(-c3ccc(C)c(S(=O)(=O)N4CCCCC4)c3)o2)cc1OC |
| 1110 | Cc1ccc(-c2noc(CN3N=NC4C(=O)N(c5ccc(C)c(C)c5)C(=O)C43)n2)cc1 (centres undefined) |
| 629 | COc1ccc(NC(=O)c2nnc(CSCC(=O)N3CCN(c4ccccn4)CC3)s2)cc1 |
| 776 | CC1CCN(C(=O)C2CCc3sc(C(=O)N4CCOCC4)cc3C2)CC1 (centres undefined) |
| 831 | Cc1noc(C)c1CCC(=O)N1CCC2(CC1)CC(CCOCC1CC1)CCO2 (centres undefined) |
| 662 | Cc1ccsc1C(=O)N1CCC(n2cnnc2-c2ccccc2)C1 (centres undefined) |
| 1160 | COC(=O)c1cnc(N2CCN(c3ccccc3)CC2)c2ccccc12 |
| 1020 | O=C(CCc1ccccc1)N1CCc2cc(-c3ccno3)ccc21 |
| 1100 | Cc1ccc(N(C)C(=O)C2CCN(S(=O)(=O)c3ccc(-c4noc(C5CC5)n4)cc3)CC2)cc1 |
| 600 | O=C(Nc1nnc(-c2ccncc2)o1)c1cc(=O)c2ccccc2o1 |
| 789 | Cc1cc2c(cc1S(=O)(=O)N1CCC(C(=O)NCc3ccccc3Cl)CC1)OCC(=O)N2 |
| 559 | CCCS(=O)(=O)N1CC(N(C)Cc2cccnc2)C1 |
| 584 | CC(C)CNC(=O)C1(CCO)CCN(c2ncccn2)C1 (centres undefined) |

The next lines start with the molecule.

| Compound | RP-LC retention time [s] |
| --- | --- |
| Cc1cc(NC(=O)CSc2nnc(Cc3cccn3C)n2CCc2ccccc2)no1 | 762 |
| COc1ccc2c(c1)C1(CCN(S(=O)(=O)c3cc(F)ccc3C)C1)C(=O)N2 (centres undefined) | 857 |
| CN(C)S(=O)(=O)c1ccc(NC(=O)Cc2ccc(F)cc2)cc1 | 780 |
| CCCc1cc(N2CCN(C(=O)C3CC3)CC2)nc2nncn12 | 586 |
| CCOC(=O)c1c(C)[nH]c(C)c1S(=O)(=O)N1CCC(C(=O)NCc2ccccc2)CC1 | 754 |
| O=C(Cn1ccn2nc(-c3ccccc3)c(CO)c2c1=O)N1CCN(c2ccccc2)CC1 | 800 |
| Cc1ccc(-c2cc(C(=O)N3CCC(NC(=O)c4ccc5c(c4)OCO5)CC3)[nH]n2)c(C)c1 | 787 |
| CCOC(=O)c1ccc(NC(=O)c2cccc([N+](=O)[O-])c2)cc1 | 890 |
| Cc1nc(-c2noc(-c3cccnc3)n2)cn1CC(=O)N1CCc2ccccc21 | 714 |
| CN(C)S(=O)(=O)c1ccc(C(=O)OCc2cc(-c3ccc(Cl)cc3)on2)cc1 | 1090 |
| Cn1c(=O)c2cc(C(=O)NCC3CCCCC3)nn2c2ccccc21 | 957 |
| Cc1cc(NC(=O)CN2CCc3nc(NC(=O)C4CC4)sc3C2)no1 | 546 |
| CCOc1ccc(-n2nnnc2CNC(=O)NCc2cccs2)cc1 | 714 |
| O=C(NC1CCCCC1)c1nc(-c2ccnc(N3CCCCC3)c2)no1 | 804 |
| COc1ccc(-c2nnc(-c3cccnc3N3CCC4(CC3)OCCO4)o2)cc1 | 875 |
| COc1cc2c(cc1OC)-c1cc(=Nc3c(C)cc(C)cc3C)n(C)c(=O)n1CC2 | 765 |
| O=C(Nc1ccc(N2CCOCC2)cc1)C1CCc2sc(C(=O)N3CCCC3)cc2C1 (centres undefined) | 669 |
| Cc1ccn2cc(C(=O)NCc3ccc(N4CCOCC4)cc3)nc2c1 | 591 |
| Cc1cccc(-c2noc(CN3N=NC4C(=O)N(c5cccc(Cl)c5)C(=O)C43)n2)c1 (centres undefined) | 1060 |
| Cc1ccc(N2CC(c3noc(-c4ccc(C)c(F)c4)n3)CC2=O)cc1 (centres undefined) | 1100 |
| O=C(c1ccncc1)N1CCC(n2c(-c3ccco3)nc3cccnc32)C1 (centres undefined) | 689 |

| Compound | RP-LC retention time [s] |
| --- | --- |
| CN1CCN(c2ncc(C(=O)O)c(-c3ccccc3)n2)CC1 | 562 |
| Cc1cc(C)c2c(N3CCSCC3)nc(C(=O)N3CCCC3)nc2n1 | 617 |
| COc1ccc(CNC(=O)C2CN(S(=O)(=O)C3CC3)CC23CCCCC3)c(OC)c1 (centres undefined) | 815 |
| CC(C)CN1CCn2cc(C(=O)NCc3cccc(Br)c3)nc2C1 | 656 |
| O=C1c2ccccc2C(=O)N1c1ncn[nH]1 | 667 |
| COc1ccc(N2CC(c3noc(-c4cc(C)cc(C)c4)n3)CC2=O)cc1OC (centres undefined) | 1010 |
| CCC(=O)NCC12CCCC=C1N(C)C(=O)CC2 (centres undefined) | 648 |
| COc1ccc(-c2cn3c(C(=O)Nc4ccc5c(c4)OCCO5)csc3n2)cc1 | 813 |
| CCCN(C)C[C@@H]1CC(F)(F)CN1C1CCN(S(=O)(=O)c2ccc(C)cc2C)CC1 | 788 |
| CCN1CCCC1CNC(=O)c1nc(-c2oc3c(C)cccc3c2C)no1 (centres undefined) | 670 |
| COCCN1C(=O)CC[C@]2(C(=O)N(C)CCc3ccccn3)CCCC[C@@H]12 | 546 |
| Cc1ccc(-c2cc(C(=O)N3CCOCC3)nn2C2CCS(=O)(=O)C2)cc1C (centres undefined) | 780 |
| COC(=O)c1sc2ccc(NC(=O)C3CCN(S(=O)(=O)N4CCOCC4)CC3)cc2c1OC | 853 |
| OCCCc1nc2ccccc2n1Cc1ccccc1Cl | 568 |
| COc1cc(Cl)ccc1-c1nc(-c2ccc3c(c2)ncn3CCC(=O)N2CCCC2)no1 | 786 |
| Cc1nc2ccn(Cc3ccco3)c(=O)c2cc1C(=O)NC1CCCCC1 | 751 |
| CC(C)n1c(N2CCCN(C(=O)c3ccc(Br)o3)CC2)cc(=O)n(C(C)C)c1=O | 866 |
| CCC(C(=O)Nc1cc(-c2cn3cccnc3n2)ccc1C)c1ccccc1 (centres undefined) | 680 |
| COc1ccc(NC(=O)N2CCN(CCn3c(C(F)(F)F)nc4cccnc43)CC2)cc1 | 624 |
| O=C(NCc1[nH]nc2ccccc12)c1ccc(Cl)cc1 | 779 |
| Cc1ccc(C(=O)Nc2nc(-c3ccc4c(c3)N(C)C(=O)CO4)cs2)cc1 | 952 |
